# Laboratory results: PubChem BioAssay AID236 (DTP/NCI, 2004)
# “And” between values parts separate entries of the source, which are not always exact repeats. Equal entries are not always repeated. Inconclusive results and toxic doses are left out. Starred links: 1 amine or outer side, 2 acyl side, 3 side chain; linkers in the order of their positions; H or OH if unused. Positions of bridges follow the written chain, without caps; N, C: chain ends. Non-standard residues stand in square brackets, D forms with d. Residues, ends and D or L forms follow the SMILES beside them. Chains are numbered I, II in the order given. Actinocin(9to1) = Cc1c2oc3c(C)ccc(C(=O)[*:1])c3nc-2c(C(=O)[*:2])c(N)c1=O; aThr = C[C@H](O)[C@H](N)C(=O)O; NMeV = CN[C@H](C(=O)O)C(C)C; Sar = CNCC(=O)O
# Test system: AK4 lymphoid leukemia ip, C3AKF1 mice, survival
# Experiment: NCI In Vivo Anticancer Drug Screen. Data for tumor model AK4 Lymphoid Leukemia (intraperitoneal) in C3AKF1 (CHKRF1) mice
# Details: endpoint: median survival time, higher = longer survival
# Experimental: The antitumor activity of compounds was measured in mice bearing transplantable tumors. Survival or tumor size were measured and the results are expressed as the measurement made in the treated group (T) divided by the measurement made in the vehicle treated control group (C). The tumor model used in this assay is AK4 Lymphoid Leukemia (intraperitoneal) in C3AKF1 (CHKRF1) mice
# [1] = dose: 8.0 mg/kg/injection, schedule: Q01DX010 (ip), vehicle: saline
# [2] = dose: 50.0 mg/kg/injection, schedule: Q01DX010 (ip), vehicle: saline
# [3] = dose: 100.0 mg/kg/injection, schedule: Q01DX010 (ip), vehicle: saline
# [4] = dose: 6.0 mg/kg/injection, schedule: Q01DX010 (ip), vehicle: saline
# [5] = dose: 12.0 mg/kg/injection, schedule: Q01DX010 (ip), vehicle: saline
# [6] = dose: 18.0 mg/kg/injection, schedule: Q01DX010 (ip), vehicle: saline
# [7] = dose: 1.5 mg/kg/injection, schedule: Q01DX010 (ip), vehicle: saline
# [8] = dose: 3.0 mg/kg/injection, schedule: Q01DX010 (ip), vehicle: saline
# [9] = dose: 62.5 mg/kg/injection, schedule: Q01DX010 (ip), vehicle: saline
# [10] = dose: 125.0 mg/kg/injection, schedule: Q01DX010 (ip), vehicle: saline
# [11] = dose: 250.0 mg/kg/injection, schedule: Q01DX010 (ip), vehicle: saline
# [12] = dose: 1.25 mg/kg/injection, schedule: Q01DX010 (ip), vehicle: other
# [13] = dose: 2.5 mg/kg/injection, schedule: Q01DX010 (ip), vehicle: other
# [14] = dose: 5.0 mg/kg/injection, schedule: Q01DX010 (ip), vehicle: other
# [15] = dose: 12.5 mg/kg/injection, schedule: Q01DX010 (ip), vehicle: saline
# [16] = dose: 25.0 mg/kg/injection, schedule: Q01DX010 (ip), vehicle: saline
# [17] = dose: 3.13 mg/kg/injection, schedule: Q01DX010 (ip), vehicle: saline
# [18] = dose: 6.25 mg/kg/injection, schedule: Q01DX010 (ip), vehicle: saline
smiles,measurement,setting,value
"Cc1c2oc3c(C)ccc(C(=O)N[C@@H]4C(=O)N[C@H](C(C)C)C(=O)N5CCC[C@H]5C(=O)N(C)CC(=O)N(C)[C@@H](C(C)C)C(=O)O[C@H]4C)c3nc-2c(C(=O)N[C@@H]2C(=O)N[C@H](C(C)C)C(=O)N3CCC[C@H]3C(=O)N(C)CC(=O)N(C)[C@@H](C(C)C)C(=O)O[C@H]2C)c(N)c1=O (I: [aThr][dV]P[Sar][NMeV] / II: [aThr][dV]P[Sar][NMeV]; ester I:1-I:C, II:1-II:C; linker I:N-II:N via Actinocin(9to1))",T/C,"dose: 12.5 micrograms/kg/injection, schedule: Q01DX010 (ip), vehicle: other",100 % of control and 86 % of control
same,T/C,"dose: 25.0 micrograms/kg/injection, schedule: Q01DX010 (ip), vehicle: other",95 % of control and 105 % of control
same,T/C,"dose: 50.0 micrograms/kg/injection, schedule: Q01DX010 (ip), vehicle: other",100 % of control
same,T/C,"dose: 100.0 micrograms/kg/injection, schedule: Q01DX010 (ip), vehicle: other",100 % of control and 109 % of control
NC(=O)c1ccc(NC(=O)CCC(=O)Nc2ccc(C(N)=O)cn2)nc1,T/C,"dose: 0.63 mg/kg/injection, schedule: Q01DX010 (ip), vehicle: saline",100 % of control
same,T/C,"dose: 1.25 mg/kg/injection, schedule: Q01DX010 (ip), vehicle: saline",110 % of control
same,T/C,"dose: 2.5 mg/kg/injection, schedule: Q01DX010 (ip), vehicle: saline",110 % of control
same,T/C,"dose: 5.0 mg/kg/injection, schedule: Q01DX010 (ip), vehicle: saline",100 % of control
C[C@]12C=CC(=O)C=C1CC[C@@H]1[C@@H]2C(=O)C[C@@]2(C)[C@H]1CC[C@]2(O)C(=O)CO,T/C,"dose: 6.25 mg/kg/injection, schedule: Q01DX010 (sc), vehicle: steriod suspending solution",100 % of control
same,T/C,"dose: 12.5 mg/kg/injection, schedule: Q01DX010 (sc), vehicle: steriod suspending solution",100 % of control and 87 % of control
same,T/C,"dose: 12.5 mg/kg/injection, schedule: Q01DX Z (sc), vehicle: steriod suspending solution",93 % of control
same,T/C,"dose: 25.0 mg/kg/injection, schedule: Q01DX010 (sc), vehicle: steriod suspending solution",100 % of control and 87 % of control
same,T/C,"dose: 25.0 mg/kg/injection, schedule: Q01DX Z (sc), vehicle: steriod suspending solution",93 % of control
same,T/C,"dose: 50.0 mg/kg/injection, schedule: Q01DX010 (sc), vehicle: steriod suspending solution",90 % of control and 100 % of control (2×)
same,T/C,"dose: 50.0 mg/kg/injection, schedule: Q01DX Z (sc), vehicle: steriod suspending solution",96 % of control and 100 % of control
same,T/C,"dose: 100.0 mg/kg/injection, schedule: Q01DX010 (sc), vehicle: steriod suspending solution",90 % of control and 118 % of control
same,T/C,"dose: 100.0 mg/kg/injection, schedule: Q01DX Z (sc), vehicle: steriod suspending solution",96 % of control
same,T/C,"dose: 200.0 mg/kg/injection, schedule: Q01DX010 (sc), vehicle: steriod suspending solution",105 % of control and 118 % of control
same,T/C,"dose: 200.0 mg/kg/injection, schedule: Q01DX Z (sc), vehicle: steriod suspending solution",96 % of control and 120 % of control
O=C(Nc1ccc(C2=NCCN2)cc1)c1cccc(C(=O)Nc2ccc(C3=NCCN3)cc2)c1,T/C,[1],115 % of control
same,T/C,"dose: 16.0 mg/kg/injection, schedule: Q01DX010 (ip), vehicle: saline",150 % of control and 165 % of control
same,T/C,"dose: 32.0 mg/kg/injection, schedule: Q01DX010 (ip), vehicle: saline",205 % of control and 210 % of control
same,T/C,"dose: 64.0 mg/kg/injection, schedule: Q01DX010 (ip), vehicle: saline",235 % of control and 245 % of control
OC(CBr)C(O)C(O)C(O)CBr (configuration not stated),T/C,[2],100 % of control and 87 % of control
same,T/C,[3],93 % of control and 87 % of control
same,T/C,"dose: 200.0 mg/kg/injection, schedule: Q01DX010 (ip), vehicle: saline",93 % of control and 100 % of control
same,T/C,"dose: 400.0 mg/kg/injection, schedule: Q01DX010 (ip), vehicle: saline",100 % of control
C[N+](C)(C)c1ncnc2nc[nH]c12,T/C,"dose: 15.0 mg/kg/injection, schedule: Q01DX010 (ip), vehicle: saline",100 % of control
same,T/C,"dose: 30.0 mg/kg/injection, schedule: Q01DX010 (ip), vehicle: saline",116 % of control
same,T/C,"dose: 60.0 mg/kg/injection, schedule: Q01DX010 (ip), vehicle: saline",111 % of control
same,T/C,"dose: 120.0 mg/kg/injection, schedule: Q01DX010 (ip), vehicle: saline",88 % of control
O=C(Nc1ccc(C2=NCCN2)cc1)c1ccc(C(=O)Nc2ccc(C3=NCCN3)cc2)c([N+](=O)[O-])c1,T/C,[4],150 % of control
same,T/C,[5],155 % of control and 210 % of control
same,T/C,[6],100 % of control and 240 % of control
N=C(N)c1ccc(Nc2ccc(C(=N)N)cc2)cc1,T/C,[7],88 % of control
same,T/C,[8],88 % of control and 122 % of control
same,T/C,[4],94 % of control and 105 % of control
same,T/C,[5],94 % of control and 111 % of control
c1ccc(CCSc2ncnc3nc[nH]c23)cc1,T/C,[9],100 % of control
same,T/C,[10],100 % of control
same,T/C,[11],100 % of control
same,T/C,"dose: 500.0 mg/kg/injection, schedule: Q01DX010 (ip), vehicle: saline",100 % of control
CCOC(N)=O,T/C,[10],100 % of control and 121 % of control
same,T/C,[11],100 % of control and 106 % of control
same,T/C,"dose: 1000.0 mg/kg/injection, schedule: Q01DX010 (ip), vehicle: saline",87 % of control
Nc1nc(=S)c2[nH]cnc2[nH]1,T/C,[12],100 % of control and 114 % of control
same,T/C,[13],93 % of control and 114 % of control
same,T/C,[14],112 % of control
same,T/C,"dose: 10.0 mg/kg/injection, schedule: Q01DX010 (ip), vehicle: other",106 % of control
CCN(CCNc1ccc(C)c2sc3cc(Cl)ccc3c(=O)c12)CC(C)O (configuration not stated),T/C,"dose: 31.3 mg/kg/injection, schedule: Q01DX010 (ip), vehicle: saline",94 % of control
same,T/C,[9],88 % of control and 94 % of control
same,T/C,[10],94 % of control
same,T/C,[11],88 % of control
CN(C)c1ccc(/C=C\c2ccnc3ccccc23)cc1,T/C,[7],100 % of control
same,T/C,[8],100 % of control
same,T/C,[4],100 % of control
same,T/C,[5],100 % of control
CN1CC[C@]23c4c5ccc(O)c4O[C@H]2C(=O)CC[C@H]3[C@H]1C5,T/C,"dose: 0.5 mg/kg/injection, schedule: Q01DX010 (ip), vehicle: saline",94 % of control
same,T/C,"dose: 1.0 mg/kg/injection, schedule: Q01DX010 (ip), vehicle: saline",105 % of control
same,T/C,"dose: 2.0 mg/kg/injection, schedule: Q01DX010 (ip), vehicle: saline",94 % of control
same,T/C,"dose: 4.0 mg/kg/injection, schedule: Q01DX010 (ip), vehicle: saline",88 % of control and 94 % of control
same,T/C,[1],88 % of control
Oc1cc(CN(CCCl)CCCl)c(O)cc1CN(CCCl)CCCl,T/C,"dose: 10.0 mg/kg/injection, schedule: Q01DX010 (ip), vehicle: saline",100 % of control
CS(=O)(=O)OCCC(=O)N1CCN(C(=O)CCOS(C)(=O)=O)CC1,T/C,[15],94 % of control and 116 % of control
same,T/C,[16],116 % of control
same,T/C,[3],122 % of control
CS(=O)(=O)OCCCl,T/C,"dose: 18.8 mg/kg/injection, schedule: Q01DX010 (ip), vehicle: saline",100 % of control
same,T/C,"dose: 37.5 mg/kg/injection, schedule: Q01DX010 (ip), vehicle: saline",100 % of control
same,T/C,"dose: 75.0 mg/kg/injection, schedule: Q01DX010 (ip), vehicle: saline",100 % of control
C[n+]1c2ccccc2nc2c(N)cc(N)cc21,T/C,[5],106 % of control
same,T/C,[6],106 % of control
same,T/C,"dose: 27.0 mg/kg/injection, schedule: Q01DX010 (ip), vehicle: saline",100 % of control
[I][Hg][CH2]C1COC([CH2][Hg][I])CO1 (configuration not stated),T/C,"dose: 0.78 mg/kg/injection, schedule: Q01DX010 (ip), vehicle: saline",106 % of control
same,T/C,"dose: 1.56 mg/kg/injection, schedule: Q01DX010 (ip), vehicle: saline",100 % of control
same,T/C,[17],100 % of control
same,T/C,[18],100 % of control
same,T/C,[15],88 % of control
O=[n+]1c2c(n([O-])c3ccccc31)-c1cccc3cccc-2c13,T/C,[17],100 % of control
same,T/C,[18],100 % of control
same,T/C,[15],100 % of control
same,T/C,[16],88 % of control and 94 % of control
same,T/C,[2],88 % of control
same,T/C,[3],88 % of control
CN[C@H]1CCc2cc(OC)c(OC)c(OC)c2-c2ccc(OC)c(=O)cc21,T/C,"dose: 0.63 mg/kg/injection, schedule: Q01DX010 (ip), vehicle: other",95 % of control and 100 % of control
same,T/C,[12],95 % of control and 100 % of control
same,T/C,[13],90 % of control and 100 % of control
same,T/C,[14],100 % of control and 104 % of control
